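Five concentrations, 48 hours, 96-well plates. GI50 = concentration required for 50% inhibition of growth.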 Activity calls are given as the source filed them. No stated cut-off is given here; in the data, active = GI50 up to about 1.1 µM and inactive = higher.
Tests used:
Experiment in all cases: NCI-60 cell line screen, 48 h
[1] = tested on: K562
[2] = tested on: KM12
[3] = tested on: U-251
[4] = tested on: NCI/ADR-RES
[5] = tested on: MOLT-4
[6] = tested on: HCC 2998
[7] = tested on: SN12C
[8] = tested on: COLO 205
[9] = tested on: SK-MEL-28
[10] = tested on: UO-31
[11] = tested on: CCRF-CEM
[12] = tested on: NCI-H522
[13] = tested on: SF-539
[14] = tested on: SW-620
[15] = tested on: MDA-MB-435
[16] = tested on: SNB-75
[17] = tested on: Malme-3M
[18] = tested on: UACC-62
[19] = tested on: UACC-257
[20] = tested on: M14
[21] = tested on: HCT-15
[22] = tested on: SF-268
[23] = tested on: HOP-62
[24] = tested on: HT-29
[25] = tested on: NCI-H23
[26] = tested on: PC-3
[27] = tested on: SK-OV-3
[28] = tested on: OVCAR-5
[29] = tested on: BT-549
[30] = tested on: LOX IMVI
[31] = tested on: SNB-19
[32] = tested on: ACHN
[33] = tested on: EKVX
[34] = tested on: RPMI-8226
[35] = tested on: OVCAR-3
[36] = tested on: CAKI-1
[37] = tested on: MDA-MB-231
[38] = tested on: SK-MEL-2
[39] = tested on: TK-10
[40] = tested on: Hs-578T
[41] = tested on: MCF7
[42] = tested on: OVCAR-4
[43] = tested on: SK-MEL-5
[44] = tested on: OVCAR-8
[45] = tested on: HL-60
[46] = tested on: A549
[47] = tested on: 786-0
[48] = tested on: SF-295
[49] = tested on: IGROV-1
[50] = tested on: A498
[51] = tested on: MDA-N
[52] = tested on: DU-145
[53] = tested on: T47D
[54] = tested on: NCI-H460
[55] = tested on: RXF 393
[56] = tested on: HCT-116
[57] = tested on: NCI-H226
[58] = tested on: SR
[59] = tested on: HOP-92

Measured: GI50

NN=C(S)Nc1cccc(Cl)c1
inactive: [1] 36.6 µM | [2] 82 µM | [3] > 100 µM | [4] 53.5 µM | [5] 35.4 µM | [6] 64.7 µM | [7] 94.4 µM | [8] 89.7 µM | [9] > 100 µM | [10] > 100 µM | [11] 25.8 µM | [12] 95.9 µM | [13] > 100 µM | [14] > 100 µM | [15] 83.6 µM | [16] > 100 µM | [17] > 100 µM | [18] > 100 µM | [19] > 100 µM | [20] 88.7 µM | [22] > 100 µM | [23] > 100 µM | [24] 37.4 µM | [25] > 100 µM | [26] 48.2 µM | [27] > 100 µM | [28] > 100 µM | [29] > 100 µM | [30] > 100 µM | [31] > 100 µM | [32] > 100 µM | [33] > 100 µM | [34] > 100 µM | [35] 29.3 µM | [36] > 100 µM | [37] > 100 µM | [38] 79.4 µM | [39] > 100 µM | [40] > 100 µM | [41] > 100 µM | [42] 39.9 µM | [43] > 100 µM | [44] 81.5 µM | [45] > 100 µM | [46] > 100 µM | [47] > 100 µM | [48] 69.2 µM | [49] > 100 µM | [50] > 100 µM | [51] > 100 µM | [52] > 100 µM | [53] 74.8 µM | [54] 64.1 µM | [55] > 100 µM | [56] 36.3 µM
48.2 µM: [21]

OC(c1ccc2c(c1)OCO2)c1ccc2c(c1)OCO2
inactive: [1] > 100 µM | [57] > 100 µM | [2] > 100 µM | [3] > 100 µM | [4] > 100 µM | [5] > 100 µM | [6] > 100 µM | [7] > 100 µM | [8] > 100 µM | [9] > 100 µM | [10] 75 µM | [11] > 100 µM | [12] > 100 µM | [13] > 100 µM | [14] > 100 µM | [15] > 100 µM | [16] 80.4 µM | [17] > 100 µM | [18] > 100 µM | [19] > 100 µM | [20] > 100 µM | [22] 53.6 µM | [23] > 100 µM | [24] > 100 µM | [25] > 100 µM | [26] > 100 µM | [27] > 100 µM | [28] > 100 µM | [29] > 100 µM | [30] > 100 µM | [58] > 100 µM | [59] > 100 µM | [31] > 100 µM | [32] > 100 µM | [33] > 100 µM | [34] > 100 µM | [35] > 100 µM | [36] > 100 µM | [37] > 100 µM | [38] > 100 µM | [39] > 100 µM | [40] > 100 µM | [41] > 100 µM | [42] > 100 µM | [43] > 100 µM | [44] > 100 µM | [45] > 100 µM | [46] > 100 µM | [47] > 100 µM | [48] > 100 µM | [49] > 100 µM | [50] 54 µM | [51] > 100 µM | [52] > 100 µM | [53] > 100 µM | [54] > 100 µM | [56] > 100 µM
> 100 µM: [21]

— ChEMBL document CHEMBL1201862, “PubChem BioAssay data set” (2004)
